Laboratory results: patent US20230234942A1, “COMPOUNDS FOR TREATING HUNTINGTON'S DISEASE” (PTC Therapeutics, Inc., priority 2020, published 2023)

Test system: Endogenous Huntingtin Protein
Test: Endogenous Huntingtin Protein Assay (ELISA-based MSD electrochemiluminescence)
Assay type: cell-based
Details: Table 2; MSD plates coated with MW1 (expanded polyglutamine) or MAB2166 capture antibody; "inactive" = result above the detection limit of the assay
Experimental: Compounds of Formula (I) were tested using the Meso Scale Discovery (MSD) Assay provided in International Application No. PCT/US2016/066042, filed on Dec. 11, 2016 and claiming priority to U.S. Provisional Application 62/265,652 filed on Dec. 10, 2015, the entire contents of which are incorporated herein by reference.
The Endogenous Huntingtin Protein assay used in Biological Example 1 was developed using the ELISA-based MSD electrochemiluminescence assay platform.
Meso Scale Discovery (MSD) 96-well or 384-well plates were coated overnight at 4° C. with MW1 (expanded polyglutamine) or MAB2166 monoclonal antibody (for capture) at a concentration of 1 μg/mL in PBS (30 μL per well). Plates were then washed three times with 300 μL wash buffer (0.05% Tween-20 in PBS) and blocked (100 μL blocking buffer; 5% BSA in PBS) for 4-5 hours at room temperature with rotational shaking and then washed three times with wash buffer.
Samples (25 μL) were transferred to the antibody-coated MSD plate and incubated overnight at 4° C. After removal of the lysates, the plate was washed three times with wash buffer, and 25 μL of #56565 (Cell signaling; rabbit monoclonal) secondary antibody (diluted to 0.25 μg/mL in 0.05% Tween-20 in blocking buffer) was added to each well and incubated with shaking for 1 Hour at room temperature. Following incubation with the secondary antibody, the wells were rinsed with wash buffer after which 25 μL of goat anti-rabbit SULFO TAG secondary detection antibody (required aspect of the MSD system) (diluted to 0.25 μg/mL in 0.05% Tween-20 in blocking buffer) was added to each well and incubated with shaking for 1 hour at room temperature. After rinsing three times with wash buffer, 150 μL of read buffer T with surfactant (MSD) were added to each empty well, and the plate was imaged on a SI 6000 imager (MSD) according to manufacturers' instructions provided for 96- or 384-well plates.

| IC50 | SMILES |
| --- | --- |
| 4.5 nM | CC(C)(O)C1CN(c2ncc(-c3ccc(-c4c[nH]nc4F)cc3O)nn2)CCN1 (stereo not shown) [Cpd 4, 5-(3-fluoro-1H-pyrazol-4-yl)-2-{3-[3-(2-hydroxypropan-2-yl)piperazin-1-yl]-1,2,4-triazin-6-yl}phenol] |
| 3.6 nM | Cc1cn2nc(-c3ccc(-c4cnc(N5C[C@@H](C)N[C@@H](C)C5)nn4)c(O)c3)cc(C)c2n1 [Cpd 69, 5-(2,8-dimethylimidazo[1,2-b]pyridazin-6-yl)-2-{3-[(3R,5S)-3,5-dimethylpiperazin-1-yl]-1,2,4-triazin-6-yl}phenol] |
| 60.5 nM | CC(C)[C@H]1CN(c2ncc(-c3ccc(-c4ccncc4)cc3O)nn2)CCN1 [Cpd 161, 2-{3-[(3S)-3-(propan-2-yl)piperazin-1-yl]-1,2,4-triazin-6-yl}-5-(pyridin-4-yl)phenol] |
| 22.7 nM | CC[C@H]1CN(c2ncc(-c3ccc(-c4cn[nH]c4)cc3O)nn2)CCN1 [Cpd 23, 2-{3-[(3S)-3-ethylpiperazin-1-yl]-1,2,4-triazin-6-yl}-5-(1H-pyrazol-4-yl)phenol] |
| 204 nM | CC(C)[C@H]1CN(c2ncc(-c3ccc(-c4ncccn4)cc3O)nn2)CCN1 [Cpd 151, 2-{3-[(3S)-3-(propan-2-yl)piperazin-1-yl]-1,2,4-triazin-6-yl}-5-(pyrimidin-2-yl)phenol] |
| 114 nM | C[C@H]1CN(c2ncc(-c3ccc(-c4cn[nH]c4F)cc3O)nn2)C[C@@H](C2CC2)N1 [Cpd 215, 2-{3-[(3R,5S)-3-cyclopropyl-5-methylpiperazin-1-yl]-1,2,4-triazin-6-yl}-5-(5-fluoro-1H-pyrazol-4-yl)phenol] |
| 1010 nM | CC(C)N1CCN(c2ncc(-c3ccc(-c4cn[nH]c4)cc3O)nn2)CC1 [Cpd 60, 2-{3-[4-(propan-2-yl)piperazin-1-yl]-1,2,4-triazin-6-yl}-5-(1H-pyrazol-4-yl)phenol] |
| 5.6 nM | CC(C)[C@H]1CN(c2ncc(-c3cc(F)c(-c4cn[nH]c4)cc3O)nn2)CCN1 [Cpd 158, 4-fluoro-2-{3-[(3S)-3-(propan-2-yl)piperazin-1-yl]-1,2,4-triazin-6-yl}-5-(1H-pyrazol-4-yl)phenol] |
| 634 nM | Cc1cncc(-c2ccc(-c3cnc(N4CCN[C@@H](C(C)C)C4)nn3)c(O)c2)n1 [Cpd 143, 5-(6-methylpyrazin-2-yl)-2-{3-[(3S)-3-(propan-2-yl)piperazin-1-yl]-1,2,4-triazin-6-yl}phenol] |
| 214 nM | CC(C)[C@H]1CN(c2ncc(-c3ccc(-c4ccc5nsnc5c4)cc3O)nn2)CCN1 [Cpd 263, 5-(2,1,3-benzothiadiazol-5-yl)-2-{3-[(3S)-3-(propan-2-yl)piperazin-1-yl]-1,2,4-triazin-6-yl]phenol] |
| 167 nM | CC[C@@H]1CN(c2ncc(-c3ccc(-c4cn[nH]c4)cc3O)nn2)CCN1 [Cpd 48, 2-{3-[(3R)-3-ethylpiperazin-1-yl]-1,2,4-triazin-6-yl}-5-(1H-pyrazol-4-yl)phenol] |
| 110 nM | [2H]C([2H])([2H])n1cc(-c2ccc(-c3cnc(N4CCNC(C(C)C)C4)nn3)c(O)c2)cn1 (stereo not shown) [Cpd 41, 5-[1-(^2H3)methyl-1H-pyrazol-4-yl]-2-{3-[3-(propan-2-yl)piperazin-1-yl]-1,2,4-triazin-6-yl}phenol] |
| 330 nM | [2H]C([2H])([2H])n1cc(-c2ccc(-c3cnc(N4C[C@@H](C)N(C)[C@@H](C)C4)nn3)c(O)c2)cn1 [Cpd 51, 5-[1-(^2H3)methyl-1H-pyrazol-4-yl]-2-{3-[(3R,5S)-3,4,5-trimethylpiperazin-1-yl]-1,2,4-triazin-6-yl}phenol] |
| 19.5 nM | Cc1ccc2c(cnn2-c2ccc(-c3cnc(N4CCN[C@@H](C(C)C)C4)nn3)c(O)c2)n1 [Cpd 155, 5-(5-methyl-1H-pyrazolo[4,3-b]pyridin-1-yl)-2-{3-[(3S)-3-(propan-2-yl)piperazin-1-yl]-1,2,4-triazin-6-yl}phenol] |
| 42 nM | CC(C)C1CN(c2ncc(-c3ccc(-c4cn[nH]c4)cc3O)nn2)CCN1C (stereo not shown) [Cpd 34, 2-{3-[4-methyl-3-(propan-2-yl)piperazin-1-yl]-1,2,4-triazin-6-yl}-5-(1H-pyrazol-4-yl)phenol] |
| 5.1 nM | Cc1nc2c(C)nc(-c3ccc(-c4cnc(N5CCN[C@@H](C(C)C)C5)nn4)c(O)c3)cn2n1 [Cpd 78, 5-(2,8-dimethyl[1,2,4]triazolo[1,5-a]pyrazin-6-yl)-2-{3-[(3S)-3-(propan-2-yl)piperazin-1-yl]-1,2,4-triazin-6-yl}phenol] |
| 77.7 nM | CC(C)[C@H]1CN(c2ncc(-c3ccc(-c4nc(C(F)F)cs4)cc3O)nn2)CCN1 [Cpd 186, 5-[4-(difluoromethyl)-1,3-thiazol-2-yl]-2-{3-[(3S)-3-(propan-2-yl)piperazin-1-yl]-1,2,4-triazin-6-yl}phenol] |
| 6.8 nM | COc1cc(-c2ccc(-c3cnc(N4C[C@@H](C)N[C@@H](C)C4)nn3)c(O)c2)nn2nc(C)nc12 [Cpd 90, 2-{3-[(3R,5S)-3,5-dimethylpiperazin-1-yl]-1,2,4-triazin-6-yl}-5-(8-methoxy-2-methyl[1,2,4]triazolo[1,5-b]pyridazin-6-yl)phenol] |
| 5.2 nM | C[C@@H]1CN(c2ncc(-c3ccc(-c4cc(F)c5nn(C)cc5c4)cc3O)nn2)C[C@H](C)N1 [Cpd 79, 2-{3-[(3R,5S)-3,5-dimethylpiperazin-1-yl]-1,2,4-triazin-6-yl}-5-(7-fluoro-2-methyl-2H-indazol-5-yl)phenol] |
| 14.9 nM | CC1(C2CN(c3ncc(-c4ccc(-c5cn[nH]c5)cc4O)nn3)CCN2)CC1 (stereo not shown) [Cpd 134, 2-{3-[3-(1-methylcyclopropyl)piperazin-1-yl]-1,2,4-triazin-6-yl}-5-(1H-pyrazol-4-yl)phenol] |
| 526 nM | CC(C)[C@H]1CN(c2ncc(-c3ccc(-c4nnc(C5CC5)o4)cc3O)nn2)CCN1 [Cpd 199, 5-(5-cyclopropyl-1,3,4-oxadiazol-2-yl)-2-{3-[(3S)-3-(propan-2-yl)piperazin-1-yl]-1,2,4-triazin-6-yl}phenol] |
| 4.3 nM | C[C@@H]1CN(c2ncc(-c3ccc(-c4cc(F)c5nn(C)cc5c4)cc3O)nn2)C[C@@H](C)N1 [Cpd 76, 2-{3-[(3R,5R)-3,5-dimethylpiperazin-1-yl]-1,2,4-triazin-6-yl}-5-(7-fluoro-2-methyl-2H-indazol-5-yl)phenol] |
| 6.5 nM | CC(C)[C@H]1CN(c2ncc(-c3ccc(-c4ccc5nn(C)cc5c4)cc3O)nn2)CCN1 [Cpd 88, 5-(2-methyl-2H-indazol-5-yl)-2-{3-[(3S)-3-(propan-2-yl)piperazin-1-yl]-1,2,4-triazin-6-yl}phenol] |
| 3.3 nM | CC(C)[C@H]1CN(c2ncc(-c3ccc(-c4cnc5nn(C)nc5c4)cc3O)nn2)CCN1 [Cpd 212, 5-(2-methyl-2H-[1,2,3]triazolo[4,5-b]pyridin-6-yl)-2-{3-[(3S)-3-(propan-2-yl)piperazin-1-yl]-1,2,4-triazin-6-yl}phenol] |

| SMILES | IC50 |
| --- | --- |
| CC[C@H]1CN(c2ncc(-c3ccc(-c4ccnc(OC)c4)cc3O)nn2)C[C@@H](C)N1 (single isomer, unassigned) [Cpd 266, 2-{3-[(3S,5R)-3-ethyl-5-methylpiperazin-1-yl]-1,2,4-triazin-6-yl}-5-(2-methoxypyridin-4-yl)phenol or 2-{3-[(3R,5S)-3-ethyl-5-methylpiperazin-1-yl]-1,2,4-triazin-6-yl}-5-(2-methoxypyridin-4-yl)phenol] | 19.4 nM |
